Assay results reported in EPA's ToxRefDB 2.

Tests used:
dog = settings: Subchronic oral toxicity in nonrodent, beagle, Capsule, dose end: 90 day, group: systemic
rat [1] = settings: Subchronic oral toxicity in rodents, fischer, Water, dose end: 14 week, group: systemic
mouse [2] = settings: Subchronic oral toxicity in rodents, b6c3f1, Water, dose end: 14 week, group: systemic
mouse [3] = settings: Combined chronic toxicity/carcinogenicity, b6c3f1, Oral, Water, dose end: 105 week, group: systemic
rat [4] = settings: Reproduction/developmental toxicity screening test, sprague dawley, Oral, Water, dose end: 1 generation, group: parental
rat [5] = settings: Reproduction/developmental toxicity screening test; sprague dawley; Oral; Water; dose end: 1 PND; group: parental; systemic / in life observation / water consumption / water consumption
rat [6] = settings: Subchronic oral toxicity in rodents, other, Gavage/Intubation, dose end: 90 day, group: systemic
rat [7] = settings: Combined chronic toxicity/carcinogenicity, fischer, Oral, Water, dose end: 105 week, group: systemic
rat [8] = settings: Subchronic oral toxicity in rodents, sprague dawley, Water, dose end: 13 week, group: systemic
[9] = systemic / clinical chemistry / alkaline phosphatase (alp/alk) / alkaline phosphatase (alp/alk) + systemic / clinical chemistry / calcium / …
[10] = systemic / clinical chemistry / alanine aminotransferase (alt/sgpt) / alanine aminotransferase (alt/sgpt) + systemic / clinical chemistry / …
[11] = systemic / pathology gross / sperm measure / sperm motility
[12] = systemic / in life observation / water consumption / water consumption + systemic / pathology gross / sperm measure / sperm motility
[13] = systemic / in life observation / water consumption / water consumption
[14] = systemic / in life observation / food consumption / food consumption + systemic / in life observation / water consumption / water …
[15] = systemic / organ weight / thymus / absolute + systemic / organ weight / thymus / relative to body weight + systemic / organ weight / thymus…
[16] = systemic / pathology microscopic / esophagus / hyperkeratosis + systemic / pathology microscopic / oral mucosa / [other] + systemic / …
[17] = systemic / pathology gross / thyroid gland / enlarged + systemic / pathology microscopic / thyroid gland / cellular alteration
[18] = systemic / pathology gross / thyroid gland / enlarged + systemic / pathology microscopic / thyroid gland / cellular alteration + systemic / …

`O=[N+]([O-])[O-].[Ag+]` [Silver nitrate] gave an LOAEL (dog; [9]) of 250 mg/kg/day, an NEL (dog; [9]) of 10 mg/kg/day and an NOAEL (dog; [9]) of 50 mg/kg/day. The LEL (dog; systemic / in life observation / clinical signs / headflicking + systemic / in life observation / clinical signs / salivation + systemic / …) was 50 mg/kg/day.

With `N#CC(Br)Br` [Dibromoacetonitrile] the LOAEL (rat [1]; [10]) was over 11 mg/kg/day, the NEL (rat [1]; [10]) was 2 mg/kg/day and the NOAEL (rat [1]; [10]) was at least 11 mg/kg/day. The LEL (rat [1]; [11]) was 3 mg/kg/day, the LOAEL (mouse [2]; [12]) was over 18 mg/kg/day and the NOAEL (mouse [2]; [12]) was at least 18 mg/kg/day. The LEL (mouse [2]; [11]) was 2 mg/kg/day, the NEL (mouse [2]; [11]) was under 2 mg/kg/day and the LOAEL (mouse [3]; systemic / in life observation / body weight / body weight) was 11 mg/kg/day. For the same molecule, the NOAEL (mouse [3]; systemic / in life observation / body weight / body weight + systemic / pathology microscopic / stomach / squamous cell papilloma + systemic…) was 6 mg/kg/day, the LEL (mouse [3]; [13]) was 3 mg/kg/day and the NEL (mouse [3]; [13]) was under 3 mg/kg/day. It also gave an LOAEL (rat [4]; [14]) of over 8.2 mg/kg/day, an NEL (rat [4]; [14]) of 1.4 mg/kg/day and an NOAEL (rat [4]; [14]) of at least 8.2 mg/kg/day. The LEL (rat [4]; [13]) was 3.3 mg/kg/day, the LEL (rat [5]) was 5.3 mg/kg/day and the LOAEL (rat [5]) was over 10.8 mg/kg/day. It also gave an NEL (rat [5]) of 1.9 mg/kg/day, an NOAEL (rat [5]) of at least 10.8 mg/kg/day and an LEL (rat [6]; systemic / clinical chemistry / albumin / albumin) of 23 mg/kg/day. For the same molecule, the NEL (rat [6]; systemic / clinical chemistry / albumin / albumin + systemic / clinical chemistry / globulins / globulins + systemic / clinical chemistry / …) was 6 mg/kg/day, the LOAEL (rat [6]; [15]) was over 45 mg/kg/day and the NOAEL (rat [6]; [15]) was at least 45 mg/kg/day. For the same molecule, the LOAEL (rat [7]; systemic / pathology microscopic / esophagus / hyperkeratosis) was 4 mg/kg/day, the LEL (rat [7]; systemic / pathology microscopic / esophagus / hyperkeratosis + systemic / pathology microscopic / oral mucosa / [other] + systemic / in …) was 4 mg/kg/day and the NEL (rat [7]; [16]) was 2 mg/kg/day. The NOAEL (rat [7]; [16]) was 2 mg/kg/day, the LEL (rat [8]; [17]) was 0.005 mg/kg/day and the NEL (rat [8]; [17]) was under 0.005 mg/kg/day. It also gave an LOAEL (rat [8]; [18]) of over 5 mg/kg/day and an NOAEL (rat [8]; [18]) of at least 5 mg/kg/day.
